{
  "source": "patent US4201784A",
  "about": "“Substituted 2-[2'-(5\"-nitrofuryl-2\")vinyl-and 4'-(5\"-nitrofuryl-2\"-1,3-butadieryl]quinoline-4-carboxylic acid amides and salts thereof” (Institut Organicheskogo Sinteza Akademii Nauk Latviiskoi SSR, priority 1977, dated 1980)",
  "key": {"[1]": {"tested_on": "Lewis lung carcinoma", "experiment": "Antitumor / antimetastatic activity, Lewis lung carcinoma", "type": "in vivo, mice", "method": "(§1) Apart from the tests on Ehrlich ascitic tumor, giniquine was studied on twelve more inoculated tumors. Seven tumors (melanoma B16, sarcoma AK, large intestine carcinoma acatol-1, sarcoma 180, adenocarcinoma 755, Lewis lung carcinoma and sarcoma 37) were inoculated subcutaneously with 50 mg of tumoral cells per mouse. Four tumors (lymphatic leukemies L 5178, L 5178Y, L 1210 and P-388) were inoculated intraperitoneally with 10^6 cells per mouse. One tumor (La, hemocytoblastosis) was inoculated intraperitoneally by injecting 50 mg of cell suspension of spleen and liver of mice suffering La hemocytoblastosis, per mouse. Giniquine was injected intraperitoneally five times for seven days: 1,2,3,4,7 days or 3,4,5,6,7 days after the implantation of tumor. The rate of deceleration of the tumor growth was established 14 days after the ultimate injection of giniquine; life of test animals was recorded for 60 days."}, "[2]": {"tested_on": "wound healing processes", "experiment": "Influence on wound healing processes"}, "[3]": {"experiment": "LD50 / toxicity, mice with 7-days Ehrlich ascitic tumor", "type": "in vivo", "conditions": "for LD50: mouse, in vivo", "text": "It should be noted that with a single intraperitoneal injection of the\nWith peroral administration, toxicity of giniquine is 4-5 times lower."}, "[4]": {"tested_on": "lymphatic leukemia P-388", "experiment": "Antitumor activity, lymphatic leukemia P-388", "type": "in vivo, mice", "method": "as §1"}, "[5]": {"tested_on": "lymphatic leukemia L-1210", "experiment": "Antitumor activity, lymphatic leukemia L-1210", "type": "in vivo, mice", "method": "as §1"}, "[6]": {"tested_on": "cells of Ehrlich ascitic tumor", "experiment": "In vitro incorporation of labeled precursors into DNA, RNA and protein of Ehrlich ascitic tumor cells", "type": "cell-based, mice", "conditions": "for activity at 100 µM: 1 h, 1.10^-4 M", "method": "The effect of giniquine on biosynthesis of molecules in the in vitro tests was studied with suspensions of cells of Ehrlich ascitic tumor. The tests were conducted with common white mice of a mass of 18-20 g. Ascites was taken 7-8 days after the inoculation, dissolved with a cool Eagle medium (pH 7.4) containing 0.1% of heparin, and the cells were precipitated by centrifuging at 600 g. The cells were washed twice with the same medium, and a 10% suspension of the cells in the Eagle medium was prepared.\nThe effect of giniquine on biosynthesis of DNA, RNA and protein in the cells of Ehrlich ascitic tumor was assessed on the basis of incorporation of cells of specific labeled precursors into acid-insoluble fraction: 2-^14 C-thymidine, 2-^14 C-uridine and 2-^14 C-leucine, respectively.\nThe incubating medium contained, in a total volume of 2 ml, 100 mg of tumoral cells in the form of suspension, Eagle medium (pH 7.4), giniquine in a concentration of 1.10^-4 m and labeled precursors of nucleic acids and protein with a radioactivity corresponding to 0.1 μc. Control samples contained a corresponding volume of distilled water to replace the preparation solution.\nThe incubation was conducted in Warburg apparatus vessels at 37° C. for one hour. After the incubation, tumoral cells were fixed by adding cool 10% trichloracetic acid to the incubating medium (1:1). Concurrently a control sample without incubation was prepared, to which, before adding the cell suspension, was added 10% trichloracetic acid in the same ratio.\nThe precipitated cells were extracted for 20 minutes at 0° C. with 5% trichloroacetic acid. The samples were then filtered through millipore filters (HUFS, pore diameter 0.4 μ). The precipitate on the filter was washed twice with 5 ml of cool 5% trichloracetic acid and once with 5 ml of toluene. The filters were dried in the air and transferred into quartz flasks containing 10 ml of toluene scintillator. The radioactivity was determined by means of a liquid scintillation counter. The results were expressed in percent of the control.\nIt will be apparent from the Table that under the action of giniquine in a concentration of 1.10^-4 M the incorporation of labeled precursors of DNA, RNA and protein in acid-insoluble fraction of cells of Ehrlich ascitic tumor is disturbed compared to the control. […] The results of in vitro experiments study of the effect of 0.3 and 0.1% solutions of giniquine on the incorporation of 2-^14 C-thymidine in the acid-insoluble fraction (DNA) of Erlich cells are presented in Table 6."}, "[7]": {"tested_on": "sarcoma AK", "experiment": "Antitumor activity, sarcoma AK", "type": "in vivo, mice", "method": "as §1"}, "[8]": {"tested_on": "adenocarcinoma 755", "experiment": "Antitumor activity, adenocarcinoma 755", "type": "in vivo, mice", "method": "as §1"}, "[9]": {"conditions": "BDF1 female mice, intraperitoneal, days 1,2,3,4,7, optim. daily dose 6.0 mg/kg"}},
  "note": "Read-outs that look alike come from different tables or passages of the source.",
  "data": [
    {"smiles": "CCN(CC)CCCC(C)NC(=O)c1cc(C=Cc2ccc([N+](=O)[O-])o2)nc2ccccc12", "note": "(stereo not drawn) [giniquine, 2-[2'-(5\"-nitrofuryl-2\")vinyl]quinoline-4-carboxylic acid (α-methyl-δ-diethylaminobutyl)amide triphosphate]", "values": [
      {"measurement": "Max. life prolong.", "setting": "[1]; BDF1 female mice, intraperitoneal, days 1,2,3,4,7, optimum daily dose 6.0 mg/kg", "result": 15, "unit": "%"},
      {"measurement": "antimetastatic activity / sensitivity (in words)", "setting": "[1]; Lewis lung carcinoma", "result": "practically insensitive"},
      {"measurement": "inhibiting influence on wound healing processes", "setting": "[2]", "result": "absence of an inhibiting influences on wound healing processes"},
      {"measurement": "dependence of mice sensitivity on sex", "setting": "[3]; Table 4", "result": "does not depend on the sex of test mice"},
      {"measurement": "LD50", "setting": "[3]; ip, intraperitoneal, single injection, female", "result": 99, "unit": "mg/kg"},
      {"measurement": "LD50", "setting": "[3]; po, peroral, single administration, female", "result": 360, "unit": "mg/kg"},
      {"measurement": "LD50", "setting": "[3]; po, peroral, single administration, male", "result": 500, "unit": "mg/kg"},
      {"measurement": "toxicity, times lower", "setting": "[3]; peroral administration", "result": "4-5 times lower"},
      {"measurement": "toxicity, relative", "setting": "[3]; single intraperitoneal injection, 7 days after implantation of Ehrlich ascitic tumor", "result": "three times lower"},
      {"measurement": "sensitivity (in words)", "setting": "[4]; P-388", "result": "practically insensitive"},
      {"measurement": "Max. life prolong.", "setting": "[4]; printed B-388, BDF1 female mice, intraperitoneal, days 1,2,3,4,7, optimum daily dose 10.0 mg/kg", "result": 12, "unit": "%"},
      {"measurement": "Max. life prolong.", "setting": "[5]; BDF1 male mice, intraperitoneal, days 1,2,3,4,7, optimum daily dose 6.0 mg/kg", "result": 15, "unit": "%"},
      {"measurement": "sensitivity (in words)", "setting": "[5]; L-1210", "result": "practically insensitive"},
      {"measurement": "Incorporation of 2-^14 C-thymidine in DNA in % of control", "setting": "[6]; 0.1% solution", "result": "2.4 % of control"},
      {"measurement": "suppression of biosynthesis of DNA in tumor cells (in words)", "setting": "[6]; 0.3% solution", "result": "practically complete suppression"},
      {"measurement": "activity at 100 µM", "setting": "[6]; Mus musculus, Ehrlich, read-out: Incorporation of 2-^14 C-leucine in percent of control", "result": 86, "unit": "%"},
      {"measurement": "activity at 100 µM", "setting": "[6]; Mus musculus, Ehrlich, read-out: Incorporation of 2-^14 C-thymidine in percent of control", "result": 61, "unit": "%"},
      {"measurement": "activity at 100 µM", "setting": "[6]; Mus musculus, Ehrlich, read-out: Incorporation of 2-^14 C-uridine in percent of control", "result": 52, "unit": "%"},
      {"measurement": "activity at 0.1 %", "setting": "[6]; Mus musculus, Ehrlich, 0.1% solution, read-out: Incorporation of 2-^14 C-thymidine in DNA in % of control", "result": 2.4, "unit": "%"},
      {"measurement": "activity at 0.3 %", "setting": "[6]; Mus musculus, Ehrlich, 0.3% solution, read-out: Incorporation of 2-^14 C-thymidine in DNA in % of control", "result": 0.7, "unit": "%"},
      {"measurement": "incorporation of labeled precursors in DNA, RNA and protein (in words)", "setting": "[6]; in vitro", "result": "decelerates the incorporation of labeled precursors in DNA, RNA and protein"},
      {"measurement": "Deceleration of tumor growth", "setting": "[7]; common female mice, intraperitoneal, days 3,4,5,6,7, optim. daily dose 2.2 mg/kg", "result": 46, "unit": "%"},
      {"measurement": "Max. prolongation of life", "setting": "[7]; common female mice, intraperitoneal, days 3,4,5,6,7, optim. daily dose 10.0 mg/kg", "result": 15, "unit": "%"},
      {"measurement": "antitumor effect (in words)", "setting": "[7]; sarcoma AK", "result": "slight antitumor effect"},
      {"measurement": "Deceleration of tumor growth", "setting": "[8]; [9]", "result": 28, "unit": "%"},
      {"measurement": "Max. prolongation of life", "setting": "[8]; [9]", "result": 25, "unit": "%"},
      {"measurement": "antitumor effect (in words)", "setting": "[8]; adenocarcinoma 755", "result": "slight antitumor effect"}
    ]}
  ]
}
